Reference: patent publication US12624044B2, “SMARCA degraders and uses thereof” (Kymera Therapeutics, Inc., priority 2019, dated 2026)

Experiments:
Assay type in all cases: cell-based
SMARCA2 [1] = molecular target: T1, SMARCA2 (Homo sapiens, UniProt P51531); assay: MSD SMARCA2 degradation in A549 cell line; conditions: for Dmax: A549, A549 cells; for Dmax / DC50: 24 h; for DC50 / SMARCA2 MSD A549 degradation 24 h: Average Dmax %: A549 cells; for DC50: read-out: SMARCA2 MSD A549 degradation 24 h: Average external-Abs DC50
Summary of the method: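 A549 cells treated 24 h with compound at final 0.152-1000 nM (3-fold series, DMSO control). Lysates analyzed by MSD immunoassay using anti-SMARCA2/BRM detection and SULFO-TAG secondary antibodies; maximal degradation (Dmax %) reported as letter bins.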

SMARCA4 = molecular target: T2, SMARCA4 (Homo sapiens, UniProt P51532); assay: SMARCA4 Western blot MV4-11 degradation; conditions: for Dmax: MV4-11, MV4-11 cells, read-out: SMARCA4 WB MV411 degradation 24 h: Average Dmax %; for Dmax / DC50: 24 h; for DC50 / SMARCA4 WB MV411 degradation 24 h: Average Dmax %: MV4-11 cells; for DC50: read-out: SMARCA4 WB MV411 degradation 24 h: Average external-Abs DC50
T2 construct: SMARCA2 and SMARCA4 protein degradation in MV4-11 cells; endogenous in cells; host or cells: MV4-11
Summary of the method: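 MV4-11 cells treated with compound for 24 h, lysed in RIPA with protease/phosphatase inhibitors, and SMARCA2 and SMARCA4 (BRG1) levels assessed by Western blot with β-actin loading control and LI-COR fluorescent read-out. Maximal degradation (Dmax %) after 24 h binned into letter codes.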

SMARCA2 [2] = molecular target: T1, SMARCA2; assay: SMARCA2 Western blot MV4-11 degradation; conditions: for Dmax: MV4-11, MV4-11 cells, read-out: SMARCA2 WB MV411 degradation 24 h: Average Dmax %; for Dmax / DC50: 24 h; for DC50 / SMARCA2 WB MV411 degradation 24 h: Average Dmax %: MV4-11 cells; for DC50: read-out: SMARCA2 WB MV411 degradation 24 h: Average external-Abs DC50
Method: Cells were seeded into 6-well plates (MV4-11: 4×10^6 cells/well/1 ml) and 1 ml of 2× compound solution was added into the well to make the final concentration and the plates were mixed well and incubated for 24 hours (No cytotoxicity was observed). The cell were collected with media and spun at 3000 rpm for 5 minutes. The supernatant was aspirated and the well and the cells were washed with cold PBS once and combined for centrifugation again; the supernatant aspirated again. 200 ul pre-chilled RIPAlysis buffer (Boston BioProducts BP-115D) with protease/phosphatase inhibitor (Roche 05892791001/Roche 04906837001) was directly added into the tube to lyze the cells for 20 minutes on ice. The cell lysate were collected into EP tubes and spun at 13000 rpm for 20 minutes and 72 ul supernatant was transferred to a fresh EP tube containing 18 ul of 5× loading buffer (Beyotime Bio P0015) to make the loading samples. The samples were heated to 100° C. for 10 minutes and cooled to RT and microcentrifuged. 20 ul of samples were loaded onto SDS-PAGE gel (Novex, WG1402BOX) and the gel was run at 80 V for 20 minutes and 120 V for 1.5 hours. The samples were electrotransfer to a NC membrane using wet-transfer method with 250 mA for 2.5 hours. The membrane was blocked with LICOR blocking buffer (LI-COR, 927-50000) for 1 hour. The membrane was washed three times with TBST (CST #9997S), 5 minutes each. Incubation was performed with primary antibody prepared in blocking buffer with 0.1% Tween-20 (Solarbio, P8220) at 4° C. overnight (Anti-SMARCA2/BRM antibody (ab15597) 1:500; Anti-BRG1 antibody [EPR3912] (ab108318) 1:1000; Rabbit anti-Baf180 antibody [EPR15860] (Abcam, ab196022) 1:1000; mouse anti-beta-Actin (8H10D10) (CST #3700) 1:10000). The membrane was washed three times with TBST, 5 minutes each. Incubation with secondary antibody was performed for 1 hour at RT (anti-rabbit IgG (Licor, 926-32211) 1:5000; anti-mouse IgG (LI-COR, 926-68070) 1:5000). The membrane was washed three times with TBST, 5 minutes each and lastly the LiCOR was read.
The letter codes for the percentage of SMARCA degradation after 24 hours (Dmax %) include: A (>90% degradation), B (>70-90% degradation), C (50-70% degradation), and D (<50% degradation).

T1 sequence (P51531 whole entry): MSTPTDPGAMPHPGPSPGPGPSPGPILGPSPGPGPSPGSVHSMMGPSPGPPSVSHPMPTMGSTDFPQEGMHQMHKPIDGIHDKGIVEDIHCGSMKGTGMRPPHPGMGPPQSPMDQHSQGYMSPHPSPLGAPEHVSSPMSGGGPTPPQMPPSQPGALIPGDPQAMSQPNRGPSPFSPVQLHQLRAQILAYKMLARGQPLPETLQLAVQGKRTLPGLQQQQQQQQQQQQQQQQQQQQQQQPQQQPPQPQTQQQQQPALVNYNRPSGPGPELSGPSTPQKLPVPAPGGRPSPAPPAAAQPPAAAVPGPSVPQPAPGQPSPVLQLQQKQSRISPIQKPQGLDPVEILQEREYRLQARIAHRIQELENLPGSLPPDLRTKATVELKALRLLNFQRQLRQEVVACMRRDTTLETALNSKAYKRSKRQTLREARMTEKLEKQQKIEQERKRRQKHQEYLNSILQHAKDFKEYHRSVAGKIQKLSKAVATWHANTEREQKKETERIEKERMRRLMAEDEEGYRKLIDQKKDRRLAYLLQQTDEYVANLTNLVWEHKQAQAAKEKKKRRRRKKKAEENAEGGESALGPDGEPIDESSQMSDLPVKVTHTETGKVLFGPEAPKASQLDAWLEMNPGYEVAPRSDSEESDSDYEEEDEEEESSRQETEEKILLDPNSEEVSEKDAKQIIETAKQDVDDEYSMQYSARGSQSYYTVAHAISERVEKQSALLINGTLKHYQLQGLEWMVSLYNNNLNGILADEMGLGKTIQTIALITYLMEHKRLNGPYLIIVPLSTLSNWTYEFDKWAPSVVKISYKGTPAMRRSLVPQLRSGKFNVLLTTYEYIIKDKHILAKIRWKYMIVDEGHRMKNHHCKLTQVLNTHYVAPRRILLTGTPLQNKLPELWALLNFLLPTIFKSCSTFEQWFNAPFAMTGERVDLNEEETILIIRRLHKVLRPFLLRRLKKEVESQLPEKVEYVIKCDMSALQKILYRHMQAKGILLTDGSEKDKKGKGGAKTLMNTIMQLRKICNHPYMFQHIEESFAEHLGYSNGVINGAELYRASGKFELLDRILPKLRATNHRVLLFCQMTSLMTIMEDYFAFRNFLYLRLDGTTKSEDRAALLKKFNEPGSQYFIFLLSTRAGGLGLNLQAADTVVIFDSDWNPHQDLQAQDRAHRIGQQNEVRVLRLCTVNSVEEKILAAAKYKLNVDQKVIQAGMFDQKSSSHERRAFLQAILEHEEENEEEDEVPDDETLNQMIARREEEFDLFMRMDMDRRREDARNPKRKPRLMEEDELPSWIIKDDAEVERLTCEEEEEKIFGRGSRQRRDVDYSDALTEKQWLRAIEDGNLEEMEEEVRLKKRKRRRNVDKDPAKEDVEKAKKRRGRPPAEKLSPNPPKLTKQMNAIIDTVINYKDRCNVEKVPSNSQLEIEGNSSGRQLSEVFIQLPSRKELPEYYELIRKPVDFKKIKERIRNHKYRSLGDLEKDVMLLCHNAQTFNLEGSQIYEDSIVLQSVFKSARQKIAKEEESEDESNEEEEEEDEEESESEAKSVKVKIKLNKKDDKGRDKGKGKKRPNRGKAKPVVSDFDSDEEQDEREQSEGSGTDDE
T2 sequence (P51532 whole entry): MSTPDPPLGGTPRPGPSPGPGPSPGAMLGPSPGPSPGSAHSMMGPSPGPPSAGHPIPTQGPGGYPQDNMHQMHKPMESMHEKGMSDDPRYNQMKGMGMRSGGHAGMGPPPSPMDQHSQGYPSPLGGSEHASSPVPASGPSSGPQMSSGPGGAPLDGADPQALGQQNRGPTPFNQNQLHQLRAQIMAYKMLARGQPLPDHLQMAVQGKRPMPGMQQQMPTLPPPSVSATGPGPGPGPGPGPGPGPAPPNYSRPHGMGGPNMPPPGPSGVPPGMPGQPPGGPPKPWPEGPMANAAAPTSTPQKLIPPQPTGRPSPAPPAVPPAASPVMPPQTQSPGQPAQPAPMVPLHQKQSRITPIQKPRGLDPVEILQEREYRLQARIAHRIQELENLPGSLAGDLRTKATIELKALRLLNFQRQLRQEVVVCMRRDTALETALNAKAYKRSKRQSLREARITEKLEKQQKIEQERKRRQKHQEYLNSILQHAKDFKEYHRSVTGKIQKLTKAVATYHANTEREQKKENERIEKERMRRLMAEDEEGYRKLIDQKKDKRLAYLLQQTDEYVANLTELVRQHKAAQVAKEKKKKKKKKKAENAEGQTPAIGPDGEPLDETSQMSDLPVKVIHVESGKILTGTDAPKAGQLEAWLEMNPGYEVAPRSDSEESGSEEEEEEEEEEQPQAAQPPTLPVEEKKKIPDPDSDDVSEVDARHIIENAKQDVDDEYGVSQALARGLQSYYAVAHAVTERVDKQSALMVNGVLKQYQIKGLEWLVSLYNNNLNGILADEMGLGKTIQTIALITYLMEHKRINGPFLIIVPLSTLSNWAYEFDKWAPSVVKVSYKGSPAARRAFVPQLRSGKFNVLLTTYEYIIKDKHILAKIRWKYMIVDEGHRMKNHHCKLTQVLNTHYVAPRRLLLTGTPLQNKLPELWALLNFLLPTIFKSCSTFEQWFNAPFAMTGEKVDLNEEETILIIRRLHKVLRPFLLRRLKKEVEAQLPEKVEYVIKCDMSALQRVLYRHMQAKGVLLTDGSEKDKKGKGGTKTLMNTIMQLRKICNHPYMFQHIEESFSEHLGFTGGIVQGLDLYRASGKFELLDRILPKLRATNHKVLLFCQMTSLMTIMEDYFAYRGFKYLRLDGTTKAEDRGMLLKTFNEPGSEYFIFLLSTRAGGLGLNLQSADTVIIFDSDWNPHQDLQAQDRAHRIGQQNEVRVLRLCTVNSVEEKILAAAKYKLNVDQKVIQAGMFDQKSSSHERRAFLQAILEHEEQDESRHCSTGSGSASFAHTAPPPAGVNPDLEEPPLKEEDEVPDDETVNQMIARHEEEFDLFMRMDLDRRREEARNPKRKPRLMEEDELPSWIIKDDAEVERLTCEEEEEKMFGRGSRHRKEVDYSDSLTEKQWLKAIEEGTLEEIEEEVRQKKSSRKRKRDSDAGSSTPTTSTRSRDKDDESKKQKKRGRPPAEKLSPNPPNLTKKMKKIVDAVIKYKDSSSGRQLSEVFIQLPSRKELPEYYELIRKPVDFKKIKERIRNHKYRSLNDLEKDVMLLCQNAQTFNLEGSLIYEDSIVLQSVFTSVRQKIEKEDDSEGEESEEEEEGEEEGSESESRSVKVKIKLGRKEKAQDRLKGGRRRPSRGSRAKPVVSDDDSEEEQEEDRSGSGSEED

SMILES	Dmax (SMARCA2 [1])	DC50 (SMARCA2 [1])	Dmax (SMARCA4)	DC50 (SMARCA4)	Dmax (SMARCA2 [2])	DC50 (SMARCA2 [2])	SMARCA2 MSD A549 degradation 24 h: Average Dmax % (SMARCA2 [1])	SMARCA4 WB MV411 degradation 24 h: Average Dmax % (SMARCA4)	SMARCA2 WB MV411 degradation 24 h: Average Dmax % (SMARCA2 [2])
Cc1ncsc1-c1ccc(CNC(=O)[C@@H]2C[C@@H](O)CN2C(=O)[C@@H](NC(=O)[C@H]2CC3(C2)C[C@H](c2cnc(N4C5CCC4CN(c4cc(-c6ccccc6O)nnc4N)C5)nc2)C3)C(C)(C)C)c(C(F)(F)F)c1 (some centres unmarked) [I-419]	> 90%	100 to 500 nM	70 to 90%	100 to 500 nM	> 90%	< 100 nM	–	–	–
Cc1ncsc1-c1ccc(CNC(=O)[C@@H]2C[C@@H](O)CN2C(=O)[C@@H](NC(=O)[C@H]2C[C@]3(C2)C[C@H](c2cnc(N4C5CCC4CN(c4cc(-c6ccccc6O)nnc4N)C5)nc2)C3)C(C)(C)C)c(C(F)(F)F)c1 (some centres unmarked) [I-420]	–	100 to 500 nM	–	100 to 500 nM	–	< 100 nM	A (A (>90% degradation))	D (D (<50% degradation))	B (B (>70-90% degradation))
Cc1ncsc1-c1ccc(CNC(=O)[C@@H]2C[C@@H](O)CN2C(=O)[C@@H](NC(=O)[C@H]2CC3(C2)C[C@H](N2CCC(c4cnc(N5C6CCC5CN(c5cc(-c7ccccc7O)nnc5N)C6)nc4)CC2)C3)C(C)(C)C)cc1 (some centres unmarked) [I-423]	> 90%	< 100 nM	50 to 70%	100 to 500 nM	> 90%	< 100 nM	–	–	–
Cc1ncsc1-c1ccc(CNC(=O)[C@@H]2C[C@@H](O)CN2C(=O)[C@@H](NC(=O)[C@H]2CC3(C2)C[C@H](N2CCC(c4cnc(N5C6CCC5CN(c5cc(-c7ccccc7O)nnc5N)C6)nc4)CC2)C3)C(C)(C)C)cc1 (some centres unmarked) [I-424]	–	< 100 nM	–	> 1000 nM	–	< 100 nM	A (A (>90% degradation))	D (D (<50% degradation))	A (A (>90% degradation))
Cc1ncsc1-c1ccc(CNC(=O)[C@@H]2C[C@@H](O)CN2C(=O)[C@@H](NC(=O)C23CCC(CN4CCC(c5cnc(N6C7CCC6CN(c6cc(-c8ccccc8O)nnc6N)C7)nc5)CC4)(CC2)CC3)C(C)(C)C)cc1 [I-425]	> 90%	< 100 nM	70 to 90%	100 to 500 nM	> 90%	< 100 nM	–	–	–
Cc1ncsc1-c1ccc(CNC(=O)[C@@H]2C[C@@H](O)CN2C(=O)[C@@H](NC(=O)[C@H]2C[C@]3(C[C@H](CN4CCC(c5cnc(N6C7CCC6CN(c6cc(-c8ccccc8O)nnc6N)C7)nc5)CC4)C3)C2)C(C)(C)C)cc1 (some centres unmarked) [I-427]	–	< 100 nM	< 50%	100 to 500 nM	> 90%	< 100 nM	–	–	–
Cc1ncsc1-c1ccc(CNC(=O)[C@@H]2C[C@@H](O)CN2C(=O)[C@@H](NC(=O)C23CCC(CN4CCC(n5cc(-c6cc(-c7ccccc7O)nnc6N)cn5)CC4)(CC2)CC3)C(C)(C)C)cc1 [I-428]	> 90%	100 to 500 nM	70 to 90%	100 to 500 nM	> 90%	< 100 nM	–	–	–
CC(=O)Nc1cc(-c2scnc2C)ccc1CNC(=O)[C@@H]1C[C@@H](O)CN1C(=O)[C@@H](NC(=O)[C@H]1CC[C@H](c2cnc(N3C4CCC3CN(c3cc(-c5ccccc5O)nnc3N)C4)nc2)CC1)C(C)(C)C [I-430, (2S,4R)—N-(2-acetamido-4-(4-methylthiazol-5-yl)benzyl)-1-((2S)-2-((1r,4S)-4-(2-(3-(3-amino-6-(2-hydroxyphenyl)pyridazin-4-yl)-3,8-diazabicyclo [3.2.1]octan-8-yl)pyrimidin-5-yl)cyclohexanecarboxamido)-3,3-dimethylbutanoyl)-4-hydroxypyrrolidine-2-carboxamide]	> 90%	< 100 nM	> 90%	< 100 nM	> 90%	< 100 nM	–	–	–
Cc1ncsc1-c1ccc(CNC(=O)[C@@H]2C[C@@H](O)CN2C(=O)[C@@H](NC(=O)[C@H]2CC[C@H](c3cnc(N4C5CCC4CN(c4cc(-c6ccccc6O)nnc4N)C5)nc3)CC2)C(C)(C)C)c(C(=O)N(C)C)c1 [I-431]	> 90%	< 100 nM	> 90%	< 100 nM	> 90%	< 100 nM	–	–	–
Cc1ncsc1-c1ccc(CNC(=O)[C@@H]2C[C@@H](O)CN2C(=O)[C@@H](NC(=O)[C@H]2CC3(C2)C[C@H](c2ccc(CN4CCC(Cn5cc(-c6cc(-c7ccccc7O)nnc6N)cn5)CC4)cc2)C3)C(C)(C)C)cc1 (some centres unmarked) [I-433]	> 90%	< 100 nM	–	< 100 nM	> 90%	< 100 nM	–	C (C (50-70% degradation))	–
Cc1ncsc1-c1ccc(CNC(=O)[C@@H]2C[C@@H](O)CN2C(=O)[C@@H](NC(=O)[C@H]2C[C@@]3(C2)C[C@H](c2ccc(CN4CCC(Cn5cc(-c6cc(-c7ccccc7O)nnc6N)cn5)CC4)cc2)C3)C(C)(C)C)cc1 (some centres unmarked) [I-434]	–	< 100 nM	–	< 100 nM	–	< 100 nM	A (A (>90% degradation))	A (A (>90% degradation))	A (A (>90% degradation))
Cc1ncsc1-c1ccc(CNC(=O)[C@@H]2C[C@@H](O)CN2C(=O)[C@@H](NC(=O)[C@H]2CC[C@H](Cc3ccc(-c4cnc(N5C6CCC5CN(c5cc(-c7ccccc7O)nnc5N)C6)nc4)cc3)CC2)C(C)(C)C)cc1 [I-437]	> 90%	< 100 nM	> 90%	100 to 500 nM	> 90%	< 100 nM	–	–	–
Cc1ncsc1-c1ccc([C@H](C)NC(=O)[C@@H]2C[C@@H](O)CN2C(=O)[C@@H](NC(=O)[C@H]2CC[C@H](c3cnc(N4C5CCC4CN(c4cc(-c6ccccc6O)nnc4N)C5)nc3)CC2)C(C)(C)C)cc1 [I-438]	> 90%	< 100 nM	> 90%	< 100 nM	> 90%	< 100 nM	–	–	–
Cc1ncsc1-c1ccc(C2(NC(=O)[C@@H]3C[C@@H](O)CN3C(=O)[C@@H](NC(=O)[C@H]3CC[C@H](c4cnc(N5C6CCC5CN(c5cc(-c7ccccc7O)nnc5N)C6)nc4)CC3)C(C)(C)C)CC2)cc1 [I-439]	> 90%	< 100 nM	> 90%	< 100 nM	> 90%	< 100 nM	–	–	–
Cc1ncsc1-c1ccc(CNC(=O)[C@@H]2C[C@@H](O)CN2C(=O)[C@@H](NC(=O)C2CCC(c3cnc(N4C5CCC4CN(c4cc(-c6ccccc6O)nnc4N)C5)nc3)CC2C)C(C)(C)C)cc1 (some centres unmarked) [I-444]	–	501 to 1000 nM	–	< 100 nM	–	< 100 nM	–	–	–
Cc1ncsc1-c1ccc(CNC(=O)[C@@H]2C[C@@H](O)CN2C(=O)[C@@H](NC(=O)C2CC(N3CCC(n4cc(-c5cc(-c6ccccc6O)nnc5N)cn4)CC3)C2)C(C)(C)C)cc1 (some centres unmarked) [I-484]	70 to 90%	100 to 500 nM	70 to 90%	100 to 500 nM	> 90%	< 100 nM	–	–	–
Cc1ncsc1-c1ccc(CNC(=O)[C@@H]2C[C@@H](O)CN2C(=O)[C@@H](NC(=O)[C@H]2CC[C@H](CN(C)Cc3cnc(N4C5CCC4CN(c4cc(-c6ccccc6O)nnc4N)C5)nc3)CC2)C(C)(C)C)cc1 [I-486]	> 90%	100 to 500 nM	50 to 70%	100 to 500 nM	> 90%	< 100 nM	–	–	–
Cc1ncsc1-c1ccc(CNC(=O)[C@@H]2C[C@@H](O)CN2C(=O)[C@@H](NC(=O)C2CCC(c3cnc(N4C5CCC4CN(c4cc(-c6ccccc6O)nnc4N)C5)nc3)CC2)C(C)(C)C)cc1 (some centres unmarked) [I-503]	> 90%	< 100 nM	> 90%	< 100 nM	> 90%	< 100 nM	–	–	–
